Data published in ChEMBL document CHEMBL5370659 (J Med Chem, 2023).
Converted amounts (≈) assume the structure as drawn. The source made the active and inactive calls. The calls are words filed in the database; no cut-off is given here.

How the values were obtained:
[1] = molecular target: T1, Tryptophan 5-hydroxylase 1 (Homo sapiens, UniProt P17752); assay: Inhibition of recombinant MBP-tagged full length human THP1 using L-Trp as substrate assessed as formation of 5-HTP by measuring fluorescent property
T1 sequence (P17752 whole entry): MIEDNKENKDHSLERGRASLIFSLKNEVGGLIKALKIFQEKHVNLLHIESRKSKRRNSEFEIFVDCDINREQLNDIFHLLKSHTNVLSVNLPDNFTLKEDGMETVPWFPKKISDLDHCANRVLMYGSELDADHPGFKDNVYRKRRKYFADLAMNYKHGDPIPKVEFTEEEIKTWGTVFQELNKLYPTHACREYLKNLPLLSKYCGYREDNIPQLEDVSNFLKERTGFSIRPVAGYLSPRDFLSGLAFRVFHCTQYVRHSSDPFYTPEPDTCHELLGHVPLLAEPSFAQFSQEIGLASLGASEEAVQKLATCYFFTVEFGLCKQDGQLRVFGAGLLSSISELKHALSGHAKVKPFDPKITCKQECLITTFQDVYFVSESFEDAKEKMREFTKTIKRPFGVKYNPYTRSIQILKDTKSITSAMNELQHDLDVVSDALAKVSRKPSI

[2] = Aqueous solubility of the compound in pH 7.4 PBS buffer by HPLC-UV analysis; format: physicochemical
[3] = molecular target: ATP-dependent translocase ABCB1 (Homo sapiens, UniProt P08183); assay: Inhibition of P-gp in human Caco-2 cells seeded in polyethylene membranes assessed as permeation in presence or absence of digoxin measured for 2 hrs by LC-MS/MS analysis based transporter assay; format: cell-based
Sequence of ATP-dependent translocase ABCB1 (P08183 whole entry): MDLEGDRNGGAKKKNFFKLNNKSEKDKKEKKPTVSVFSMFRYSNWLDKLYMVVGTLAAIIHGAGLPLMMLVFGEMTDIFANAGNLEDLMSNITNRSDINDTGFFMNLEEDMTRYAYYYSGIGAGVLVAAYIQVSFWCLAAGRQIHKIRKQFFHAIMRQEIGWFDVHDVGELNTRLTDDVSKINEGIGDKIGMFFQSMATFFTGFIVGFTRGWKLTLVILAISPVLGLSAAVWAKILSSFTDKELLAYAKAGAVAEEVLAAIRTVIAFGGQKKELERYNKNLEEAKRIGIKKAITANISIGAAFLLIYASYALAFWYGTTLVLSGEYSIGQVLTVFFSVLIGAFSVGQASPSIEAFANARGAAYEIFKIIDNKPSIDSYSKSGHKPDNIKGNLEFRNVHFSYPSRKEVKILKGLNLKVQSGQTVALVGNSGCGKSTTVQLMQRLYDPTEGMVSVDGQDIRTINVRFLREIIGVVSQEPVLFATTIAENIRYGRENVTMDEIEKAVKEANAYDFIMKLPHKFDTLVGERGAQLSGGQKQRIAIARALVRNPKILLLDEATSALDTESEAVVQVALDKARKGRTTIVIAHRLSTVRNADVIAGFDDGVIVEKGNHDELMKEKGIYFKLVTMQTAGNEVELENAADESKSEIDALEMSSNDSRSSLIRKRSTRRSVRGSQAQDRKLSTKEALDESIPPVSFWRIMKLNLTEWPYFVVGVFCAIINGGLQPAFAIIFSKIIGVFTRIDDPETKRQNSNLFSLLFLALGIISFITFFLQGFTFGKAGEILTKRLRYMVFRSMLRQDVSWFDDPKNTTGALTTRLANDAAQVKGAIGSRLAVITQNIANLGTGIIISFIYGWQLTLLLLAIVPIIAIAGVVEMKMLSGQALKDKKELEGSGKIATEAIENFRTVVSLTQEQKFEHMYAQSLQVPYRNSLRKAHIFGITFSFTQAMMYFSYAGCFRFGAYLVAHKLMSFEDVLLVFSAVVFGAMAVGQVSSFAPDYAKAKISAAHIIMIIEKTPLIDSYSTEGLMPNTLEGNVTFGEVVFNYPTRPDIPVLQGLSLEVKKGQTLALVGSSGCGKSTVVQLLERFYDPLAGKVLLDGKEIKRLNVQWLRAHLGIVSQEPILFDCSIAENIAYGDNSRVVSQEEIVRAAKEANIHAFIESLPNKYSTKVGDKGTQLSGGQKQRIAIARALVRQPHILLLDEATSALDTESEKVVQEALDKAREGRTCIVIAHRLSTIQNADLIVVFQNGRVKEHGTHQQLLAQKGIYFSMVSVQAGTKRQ

[4] = AUC (0 to infinitive) in CD-1 (ICR) mouse at 50 mg/kg, po measured upto 1440 mins by LC-MS/MS analysis; format: ADME, organism-based; set-up: time < 1440 min, dose 50 mg/kg, route po; conditions: in vivo
[5] = AUMCExtra in CD-1 (ICR) mouse at 50 mg/kg, po measured upto 1440 mins by LC-MS/MS analysis; format: ADME, organism-based; conditions: in vivo, 24 h
[6] = Drug uptake in CD-1 (ICR) mouse lung at 50 mg/kg measured 2 hrs by LC-MS/MS analysis; format: ADME, organism-based; conditions: read-out: Drug uptake
[7] = Volume of distribution at steady state in Sprague-Dawley rat at 10 mg/kg, iv measured upto 1440 mins by LC-MS/MS analysis; format: ADME, organism-based; conditions: in vivo, read-out: Vdss
[8] = Clearance in Sprague-Dawley rat at 10 mg/kg, iv measured upto 1440 mins by LC-MS/MS analysis; format: ADME, organism-based; conditions: in vivo
[9] = AUMCExtra in Sprague-Dawley rat at 10 mg/kg, iv measured upto 1440 mins by LC-MS/MS analysis; format: ADME, organism-based; conditions: in vivo, 24 h
[10] = AUC (0 to last) in Sprague-Dawley rat at 50 mg/kg, po measured upto 1440 mins by LC-MS/MS analysis; format: ADME, organism-based; set-up: dose 50 mg/kg, time < 1440 min, route po; conditions: in vivo
[11] = AUC (0 to infinitive) in Sprague-Dawley rat at 50 mg/kg, po measured upto 1440 mins by LC-MS/MS analysis; format: ADME, organism-based; set-up: dose 50 mg/kg, time < 1440 min, route po; conditions: in vivo
[12] = AUCExtra in Sprague-Dawley rat at 50 mg/kg, po measured upto 1440 mins by LC-MS/MS analysis; format: ADME, organism-based; conditions: in vivo, 24 h
[13] = Plasma concentration in Sprague-Dawley rat at 50 mg/kg, po measured at 0.5 hrs by LC-MS/MS analysis; format: ADME, organism-based
[14] = Plasma concentration in Sprague-Dawley rat at 50 mg/kg, po measured at 2 hrs by LC-MS/MS analysis; format: ADME, organism-based
[15] = Drug uptake in Sprague-Dawley rat lung at 50 mg/kg, po measured at 2 hrs by LC-MS/MS analysis; format: ADME, organism-based; conditions: read-out: Drug uptake
[16] = Plasma concentration in Sprague-Dawley rat at 20 mg/kg, po measured at 2 hrs by LC-MS/MS analysis; format: ADME, organism-based
[17] = Toxicity in C57BL/6N mouse assessed as general toxic effects at 1.5 to 15 mg/kg, po bid treated for 7 days; format: organism-based; conditions: in vivo, 168 h, dose 1.5-15 mg/kg, time 7 day
Mus musculus = assay: Effect on time spent in central zone of C57BL/6N mouse at 100 mg/kg, po treated for 14 days by locomotor activity test; format: functional, organism-based; conditions: time 14.0 day
MC-38 [18] = assay: Antitumor activity against mouse MC-38 cells subcutaneously transplanted in C57BL/6N mouse assessed as reduction in AUC of tumor growth at 50 mg/kg, po bid measured on day 20 relative to control; format: functional; conditions: MC-38, 480 h, route sc, time 20 day
MC-38 [19] = assay: Antitumor activity against mouse MC-38 cells subcutaneously transplanted in C57BL/6N mouse assessed as reduction in absolute tumor volume at 50 mg/kg, po bid measured on day 13 relative to control; format: functional; conditions: MC-38, 312 h, route sc, time 13 day

## CCn1c(=O)[nH]c(=O)c2c1nc(Cc1cn3cc(C)sc3n1)n2CC1COC1
[1]
  IC50: 77 nM
[2]
  solubility: 189 µM (≈ 75.7 µg/mL)
[3]
  IC50: > 100000 nM
[4]
  AUC(0-inf): 8580 ng·h/mL
[5]
  AUMC: 4.85%
[6]
  concentration at 2 h: 168 ng/g
[7]
  Vd: 1.4 L/kg
[8]
  clearance: 33.2 mL/min/kg
[9]
  AUMC: 13.6%
[10]
  AUC(0-t) at 24 h: 8180 ng·h/mL
[11]
  AUC(0-inf): 8220 ng·h/mL
[12]
  %AUCextra: 0.44%
[13]
  concentration at 0.5 h: 5950 ng/mL
[14]
  concentration at 2 h: 1370 ng/mL
[15]
  concentration at 2 h: 391 ng/g
[16]
  concentration at 2 h: 196 ng/mL
[17]
  Activity: Non-Toxic
Mus musculus
  Activity: inactive
MC-38 [18]
  inhibition in vivo at 50 mg/kg: 35%
MC-38 [19]
  inhibition in vivo at 50 mg/kg: 50%
